Experimental data published in patent US20060094059A1, “Methods for identifying new drug leads and new therapeutic uses for known drugs” (Odyssey Thera, Inc., priority 2004, published 2006).

Columns and labels:
[1] = test system: colon adenocarcinoma (LoVo) cells; assay: MTT proliferation assay, colon; format: cell-based, Human; conditions: Homo sapiens, Tumor Cell Colon (LoVo), 120 hours, read-out: Anti-proliferative IC-50
Description: (§1) Cells were maintained in various media as follows: A549, LoVo and PC-3 (Ham's F12K medium with 2 mM L-glutamine and 1.5 g/L sodium bicarbonate), MIA PaCa-2 (Dulbecco's modified Eagle's medium with 4 mM L-glutamine and 4.5 g/L glucose), U87-MG (MEM+Earle's BSS). Medium for each cell line was supplemented with 10% FBS and […] Penecillin/Streptomycin. All cells were grown in incubators set at 37° C., 5% CO2. Thiazolyl Blue Tetrazolium Bromide (MTT) based proliferation assays were performed to assess the anti-proliferative activities of the compounds on these cells. Cells were seeded in 96 well plates at a density of 750 cells/well 24 hours prior to compound treatment. The cells were incubated with varying concentrations of compounds for 120 hours. […] Drug treatment was performed in 5 replicate wells. Background absorbance was established by wells containing medium but no cells. Vehicle (DMSO) only was used as control. MTT (Sigma-Aldrich, St. Louis, Mo.) was added to each well at a final concentration of 0.5 mg/ml. Following a 2 hour incubation at 37° C., medium in the wells was replaced with 0.15 ml DMSO. The plates were agitated for 15 min using a microtiter plate shaker.

[2] = test system: non-small cell lung carcinoma (A549) cells; assay: MTT proliferation assay, NSCLC; format: cell-based, Human; conditions: Homo sapiens, Tumor Cell NSCLC (A549), 120 hours, read-out: Anti-proliferative IC-50
Description: as §1

[3] = test system: pancreatic carcinoma (MIA PaCa-2) cells; assay: MTT proliferation assay, pancreatic; format: cell-based, Human; conditions: Homo sapiens, Tumor Cell Pancreatic (MIA PaCa-2), 120 hours, read-out: Anti-proliferative IC-50
Description: as §1

PIN1:JUN complexes = assay: Protein-fragment complementation assay PIN1:JUN; format: cell-based, human
Excerpt: To construct dynamic assays for protein-protein complexes, we used a protein-fragment complementation assay strategy (PCAs) in intact human cells. (A variety of other suitable assays, and reporter options, are described in detail below.) The principle of PCA is that complementary polypeptide fragments (F[1] and F[2]) of a reporter protein or enzyme will fold into an active form only if fused to two proteins which interact and bring the complementary fragments of the reporter protein into proximity. Reconstitution of the fragments of the reporter protein generates a fluorescent signal that can be quantified in intact cells, and the amount of the signal is proportional to the amount of the protein-protein complex used in constructing the assay. Given a suitable reporter type, the subcellular location of the complex can also be measured.
Reporter fragments for PCA were generated by oligonucleotide synthesis (Blue Heron Biotechnology, Bothell, Wash.), starting with the sequence of yellow fluorescent protein (YFP). First, oligonucleotides coding for polypeptide fragments YFP[1]and YFP[2] […] Next, PCR mutagenesis was used to generate the mutant fragments IFP[1] and IFP[2]. The IFP[1] fragment corresponds to YFP[1]-(F46L, F64L, M153T) and the IFP[2] fragment corresponds to YFP[2]-(V163A, S175G). […]

[4] = test system: glioblastoma (U-87 MG) cells; assay: MTT proliferation assay, glioblastoma; format: cell-based; conditions: Homo sapiens, Tumor Cell Glioblastoma (U-87 MG), 120 hours, read-out: Anti-proliferative IC-50
Description: as §1

Compound: O=C(Nc1ccc([N+](=O)[O-])cc1Cl)c1cc(Cl)ccc1O [Niclosamide]
- IC50 [1]: 450 nM
- IC50 [2]: 660 nM
- IC50 [3]: 590 nM
- level of PIN1:JUN complexes (intensity of the fluorescence) (PIN1:JUN complexes; FIG. 3A): decrease in the level
- Assay activity (PIN1:JUN complexes; hit in PIN1/JUN assay, drugs screened at 10 micromolar): PIN1/JUN,
- IC50 [4]: 810 nM
